The text below walks through data of ChEMBL document CHEMBL1926581, “Cyclic ether-containing macrolactins, antimicrobial 24-membered isomeric macrolactones from a marine Bacillus sp” (2011).

Each structure is given as a SMILES string. Values after ≈ are worked out from the molar mass of the structure shown.

Format in all cases: functional
One test deals with Escherichia coli. The test can be described thus: Antibacterial activity against Escherichia coli KCTC 1923 after 24 hrs by broth microdilution method. The following applies: KCTC 1923, 24 h. Background: In broth dilution the organism is exposed to a series of concentrations in liquid medium.
In a further test the test system is Bacillus subtilis. The test can be described thus: Antibacterial activity against Bacillus subtilis KCTC 1021 after 24 hrs by broth microdilution method. The following applies: KCTC 1021, 24 h.
The subject of the next test is Saccharomyces cerevisiae. As to the kind of experiment: Antifungal activity against Saccharomyces cerevisiae KCTC 7913 after 48 hrs by broth microdilution method. As to conditions: KCTC 7913, 48 h.

The MIC is the smallest concentration in the dilution series that meets the test's criterion for growth inhibition. A high value points to weaker potency. `C[C@@H]1CCC/C=C/[C@@H]2O[C@@H](C/C=C\C=C\[C@@H](O)C/C=C/C=C\C(=O)O1)C[C@@H](O)[C@H]2O`: the minimal inhibitory concentration (MIC) in the test with Escherichia coli, against Bacillus subtilis and in the test with Saccharomyces cerevisiae was 0.16 µM (≈ 0.067 µg/mL) in each case.
In the case of `C[C@@H]1CCC[C@@H]2O[C@H]2/C=C/[C@H](O)C[C@@H](O)C/C=C\C=C\[C@@H](O)C/C=C/C=C\C(=O)O1`, the values for the MIC against Escherichia coli, against Bacillus subtilis and against Saccharomyces cerevisiae were 0.16 µM (≈ 0.067 µg/mL), 0.16 µM (≈ 0.067 µg/mL) and 0.02 µM (≈ 0.00837 µg/mL), respectively.
On to `C[C@@H]1CCC/C=C/[C@@H]2O[C@H](C[C@@H](O)C/C=C\C=C\[C@@H](O)C/C=C/C=C\C(=O)O1)[C@H]2O`, for which the MIC in the test with Escherichia coli, in the test with Bacillus subtilis and against Saccharomyces cerevisiae was 0.16 µM (≈ 0.067 µg/mL) in each case.
